Experimental findings from paper PMC4912613, “A broad analysis of resistance development in the malaria parasite” (Nature Communications, 2016) are described below.

Test [1] relates to CYTb-G131S (cytb G131S, parent Dd2). The test can be described thus: Cross-resistance EC50 assay, CYTb-G131S. It is filed as cell-based, Plasmodium falciparum. Conditions: Plasmodium falciparum; SYBR green 72 hour assay; synchronized parasites; 384-well format; strain CYTb:G131S (Dd2 parent). The source says: (§1) To evaluate potential overlapping activity against known antimalarial drug targets, we performed dose-response studies with each compound against our assembled set of drug-resistant lines and their corresponding parents, in an asexual blood stage proliferation assay (Table 1). Comparisons were made to the drug-sensitive strain 3D7 when a parent was unavailable (TM90C2A, W2 and Dd2). As laboratories conducted EC50 assays with different strains and protocols, all comparisons were made between assays from the same laboratory and under the same assay conditions. Compounds displaying >5-fold EC50 shifts relative to the parent or sensitive strain were flagged as having potentially non-novel targets. Average fold shifts per strain ranged from 0.82 to 2.34, with a median of 1.23 indicating there was not common resistance to any one resistant clone. No resistance patterns were observed when classifying the compounds based on chemical structure, but this was not surprising given the diversity of compounds chosen. On the other hand, given that these confirmed compounds were derived from larger unconfirmed hit lists to which some filtration criteria may have been applied (for example, elimination of obvious dihydrofolate reductase inhibitors[32]), some[10][11][12][13] pre-existing bias may exist in the set. […]
(§2) Alternatively, a SYBR Green-based proliferation approach was used for the 72-h assay, as previously described. Briefly, a culture of either synchronized or asynchronous parasitized RBCs (0.3% parasitemia and 4% haematocrit) in screening medium (identical to supplemented medium above except no serum was added) was exposed to serial drug dilutions. Plates were incubated at 37 °C and gassed with 93% N2, 4% CO2 and 3% O2 for 72 h. Following incubation, 10 × SYBR Green I (Invitrogen; supplied in 10,000 × concentration) in lysis buffer ([…], 5 mM EDTA, 0.16% Saponin wt per vol and 1.6% Triton X vol per vol) was added to the wells and the plates were incubated overnight at room temperature before plate reading. EC50 assays were repeated three times, taking the average EC50 value from each assay set, and removing any outliers using a single iteration of Grubbs' test, eliminating values with z-scores above the critical z-value (α=0.05). The raw EC50 values for synchronized parasites assayed in a 384-well format are listed in Supplementary Data 4. The raw EC50 values for asynchronous parasites assayed in a 96 or 1536-well format are listed in Supplementary Data 5.
(§3) EC50 values for each strain were compared with those of the corresponding parent strain to determine fold-shift changes and identify resistance. To minimize the cause variance between assays, all comparisons were conducted between strains assayed under identical conditions. A one-way ANOVA followed by a Dunnet's post-test was conducted in GraphPad Prism to identify significant changes between the parent and resistant strain.

The subject of test [2] is Stage 5 gametocytes from P. falciparum NF54. As to the kind of experiment: Late-stage (stage V) gametocyte survival assay, MitoTracker. As to conditions: for EC50: Plasmodium falciparum, read-out: Stage 5 Gametocyte EC50; for EC50 fold shift compared to asexual stage: Stage 5 Gametocyte EC50: gametocyte EC50 / 3D7 EC50. It is filed as cell-based, Plasmodium falciparum. On the procedure: The second assay was a late-stage (stage V) gametocyte survival assay, which predicts transmission-blocking activity. […] Positive and negative control compounds included puromycin (0.61±0.11 μM) and atovaquone (> 12.50 μM), respectively.
To test sexual-stage activity, compounds were tested against late-stage gametocytes using a MitoTracker fluorescent-based assay. Specifically, synchronized stage V gametocytes were incubated with compound for 72 h. MitoTracker Red CMXRos (Life Technologies) was added to each well (final concentration: 500 nM) together with saponin to lyse the RBCs. Each plate was then imaged with an Operetta High Content Imaging System (Perkin Elmer) for fluorescence (590–640 nm). Varying levels of compound concentration were used (1.25 μM or 12.5 μM) due to the stock concentration supplied.
The gametocytocidal activity was measured using high-content image analysis software (Harmony, Perkin Elmer). The readout was based on number of metabolically active gametocytes per well.

The test system of another test is P. falciparum strain 3D7. The test can be described thus: Asexual blood stage 3H-hypoxanthine incorporation assay, 3D7. It counts as cell-based, Plasmodium falciparum. As for the experimental part: The 48-h assay was carried out in a 96-well format following standard methods using the ^3H-hypoxanthine incorporation assay. The raw EC50 values corresponding to this assay can be found in Supplementary Data 3. Briefly, this assay relies on the parasite incorporation of labelled hypoxanthine that is proportional to P. falciparum growth. A culture of parasitized RBCs (0.5% parasitemia with a percentage of ring stage higher than 70% of total parasitemia, 2.0% haematocrit) in RPMI-1640, […] and 5 μM hypoxanthine was exposed to drug serial dilutions. Plates were incubated for 24 h at 37 °C, 5% CO2, 5% O2 and 90% N2. After 24 h of incubation, ^3H-hypoxanthine was added and plates were incubated for an additional 24-h period. After that, parasites were harvested on a glass fibre filter using a TOMTEC Cell Harvester 96. Filters were dried and melt-on scintillator sheets were used to determine the incorporation of ^3H-hypoxanthine. Radioactivity was measured using a microbeta counter. Data were normalized using the incorporation of the positive (parasitized RBCs without drug) and negative (same culture with artesunate at 2 μM) controls. All assays were conducted in triplicate using three independently grown cultures, and EC50 values were determined using the XLfit add-in module for Excel (version 2.3.1) from Grafit (version 5.3.1.3), where parameter h is the assay hill slope, x is the compound concentration and y is the inhibition of growth effect. The XLfit equation is: […]

Test [3] relates to GNF156R (PfCARL L830V, S1076I and M81I, parent Dd2). The test can be described thus: Cross-resistance EC50 assay, GNF156R. It is filed as cell-based. Conditions: Plasmodium falciparum, SYBR green 72 hour assay, asynchronized parasites, 96-well or 1536-well format.
Text: as §1, §2, §3

Test [4] deals with ProRS (prolyl t-RNA synthetase L482H, parent Dd2). As to the kind of experiment: Cross-resistance EC50 assay, ProRS. It is filed as cell-based. Conditions: Plasmodium falciparum; SYBR green 72 hour assay; synchronized parasites; 384-well format; strain ProRS (Dd2 parent).
Text: as §1, §2, §3

For test [5], the system named is CYTbQi (cytb G33A, parent Dd2). The test can be described thus: Cross-resistance EC50 assay, CYTbQi. As to conditions: Plasmodium falciparum; SYBR green 72 hour assay; synchronized parasites; 384-well format; strain CYTbQi (Dd2 parent). It is filed as cell-based.
Text: as §1, §2, §3

[6] abbreviates: Plasmodium falciparum, 3D7, asexual stage, P. falciparum 3D7, read-out: 3D7 EC50.

The structures appear in SMILES notation. Read-outs that look alike come from different tables or passages of the source. Some results are limits rather than exact numbers.

In the case of `COC(=O)c1ccc(C2C3=C(O)CC(c4ccc(F)cc4)CC3=Nc3ccccc3N2C(=O)c2ccccc2)cc1` (centres unmarked) [MMV011438], the EC50 in test [1] was 336 nM; in test [2] (P. falciparum NF54, 72 h), 0.971 µM; in the test on P. falciparum strain 3D7 (setting [6]), 431 nM; in test [3] it was 0.842 µM; in test [4], 220 nM; in test [5], 235 nM. For the same compound, the “EC50 fold shift compared to asexual stage: Stage 5 Gametocyte EC50” value (“EC50 fold shift” for short) in test [2] came to 2.25.

In the case of `Nc1ccc(-c2nc3cc(Oc4ccc(Oc5ccc6[nH]c(-c7ccc(N)cc7)nc6c5)cc4)ccc3[nH]2)cc1` [MMV011895], the EC50 is 328 nM in test [1]; more than 12.5 µM in test [2] (P. falciparum NF54, 72 h); 160 nM with P. falciparum strain 3D7 (setting [6]); 0.126 µM in test [3]; 232 nM in test [4]; 267 nM in test [5]. Further, the “EC50 fold shift” value in test [2] is more than 78.

For `COCCNCC(O)Cn1c2ccc(Cl)cc2c2cc(Cl)ccc21` (centres unmarked) [MMV019017], the EC50 in test [1] was 929 nM; in test [2] (P. falciparum NF54, 72 h), more than 1.25 µM; in the test with P. falciparum strain 3D7 (setting [6]), 480 nM; in test [3] it was 0.336 µM; in test [4] it was 340 nM; in test [5], 549 nM. Besides, the “EC50 fold shift” value in test [2] was more than 2.6.

For `COc1ccccc1CNC(=O)CCn1c(=O)[nH]c2ccsc2c1=O` [MMV019066], the EC50 in test [1] is 149 nM; in test [2] (P. falciparum NF54, 72 h), more than 1.25 µM; in the test with P. falciparum strain 3D7 (setting [6]) it was 1670 nM; in the test on P. falciparum strain 3D7 (asexual stage, P. falciparum 3D7, read-out: 3D7 EC50), 1670 nM; in test [3], 0.008 µM; in test [4], 42 nM. Also, the EC50 in test [5] came to 74 nM. Besides, the “EC50 fold shift” value in test [2] is more than 0.7.

Turning to `Cl.c1ccc2c(NCCCCCCNc3c4c(nc5ccccc35)CCCC4)c3c(nc2c1)CCCC3` [MMV019555], the EC50 came to 237 nM in test [1]; 0.451 µM in test [2] (NF54, 72 h); 87.3 nM in the test with P. falciparum strain 3D7 (Plasmodium falciparum, 3D7, read-out: 3D7 EC50); 0.22 µM in test [3]; 230 nM in test [4]; 227 nM in test [5].

Regarding `COc1ccc(N2CCN(C(CNC(=O)C3CCCCC3)c3ccc4c(c3)OCO4)CC2)cc1` (centres unmarked) [MMV019662], the EC50 is 583 nM in test [1]; 3.68 µM in test [2] (P. falciparum NF54, 72 h); 340 nM in the test on P. falciparum strain 3D7 (setting [6]); 0.405 µM in test [3]; 481 nM in test [4]; 448 nM in test [5]. Further, the “EC50 fold shift” value in test [2] is 10.82.

Turning to `COc1ccc(-c2nc(NC(=O)Cc3ccc4c(c3)OCCO4)sc2C)cc1` [MMV019719], the EC50 in test [1] was 261 nM; in test [2] (P. falciparum NF54, 72 h), 5.52 µM; with P. falciparum strain 3D7 (setting [6]), 164 nM; in test [3] it was 0.347 µM; in test [4], 244 nM; in test [5], 245 nM. In addition, in test [2], the “EC50 fold shift” value is reported as 33.66.

Turning to `Cc1ccc(Oc2ncccc2C(=O)Cc2cccc3cccnc23)c(C)c1` [MMV020746], the EC50 is 327 nM in test [1]; 3.79 µM in test [2] (P. falciparum NF54, 72 h); 76 nM with P. falciparum strain 3D7 (setting [6]); 3.38 µM in test [3]; 278 nM in test [4]; 268 nM in test [5]. The “EC50 fold shift” value in test [2] was 49.87.

In the case of `COc1cc(-c2nc(-c3ccccc3)c(-c3ccccc3)[nH]2)cc(OC)c1O` [MMV020750], the EC50 in test [1] was 872 nM; in test [2] (P. falciparum NF54, 72 h), more than 1.25 µM; in the test on P. falciparum strain 3D7 (setting [6]), 342 nM; in test [3], 0.663 µM; in test [4] it was 919 nM; in test [5], 927 nM. Further, the “EC50 fold shift” value in test [2] was more than 3.6.

For `CCCCCCCN(Cc1ccc(OC(C)(C)C(=O)OCC)cc1)C(=O)Nc1ccc(Cl)cc1OCC` [MMV021735], the EC50 is 498 nM in test [1]; more than 11.6 µM in test [2] (P. falciparum NF54, 72 h); 383 nM in the test with P. falciparum strain 3D7 (setting [6]); 1.08 µM in test [3]; 269 nM in test [4]; 223 nM in test [5]. Further, the “EC50 fold shift” value in test [2] was more than 32.

For `CN(C)Cc1ccc(-c2cc3c(-c4ccc(CN(C)C)cc4)ccnc3[nH]2)cc1.O=C(O)C(F)(F)F` [MMV022224], the EC50 in test [1] turned out to be 343 nM; in test [2] (P. falciparum NF54, 72 h) it was 2.33 µM; in the test with P. falciparum strain 3D7 (setting [6]), 388 nM; in test [3] it was 0.429 µM; in test [4] it was 294 nM; in test [5], 327 nM.

With `Nc1ncc(-c2cn[nH]c2)cc1-c1nc2ccc(F)cc2[nH]1` [MMV023367], the EC50 in test [1] was 710 nM; in test [2] (P. falciparum NF54, 72 h) it was 6.68 µM; in the test on P. falciparum strain 3D7 (setting [6]), 302 nM; in test [3] it was 2.54 µM; in test [4] it was 517 nM; in test [5], 626 nM. The “EC50 fold shift” value in test [2] worked out at 22.12.

`CN(C)S(=O)(=O)c1cc(-c2ccc3nccc(-c4cccc(S(N)(=O)=O)c4)c3c2)cnc1N` [MMV024038]: the EC50 in test [1] was found to be 249 nM; in test [2] (P. falciparum NF54, 72 h) it was 0.317 µM; in the test with P. falciparum strain 3D7 (Plasmodium falciparum, 3D7, text value, read-out: asexual stage EC50), 228 nM; in test [3] it was 0.861 µM; in test [4] it was 143 nM; in test [5] it was 164 nM. Also, the “EC50 fold shift” value in test [2] was 1.39.

Regarding `Cc1ccc(S(=O)(=O)n2cc(-c3ccnc(N)c3)c3cc(Br)cnc32)cc1` [MMV024114], the EC50 was 1680 nM in test [1]; more than 12.5 µM in test [2] (P. falciparum NF54, 72 h); 265 nM in the test on P. falciparum strain 3D7 (setting [6]); 2.9 µM in test [3]; 669 nM in test [4]; 1380 nM in test [5]. The “EC50 fold shift” value in test [2] is listed as more than 47.

In the case of `CNCc1ccc2nc(-c3coc(Cc4cc(Cl)ccc4OCC(C)C)n3)[nH]c2c1.Cl.Cl` [MMV026596], the EC50 was 443 nM in test [1]; 6.35 µM in test [2] (P. falciparum NF54, 72 h); 346 nM with P. falciparum strain 3D7 (setting [6]); 0.414 µM in test [3]; 349 nM in test [4]; 431 nM in test [5]. In addition, the “EC50 fold shift” value in test [2] came out at 18.35.
